Assay results taken from US8680120B2, “Indole derivative or pharmaceutically acceptable salt thereof” (Kissei Pharmaceutical Co., Ltd., priority 2009, dated 2014).

Assays:
rat EP1 receptor = rat EP1 receptor (Rattus norvegicus (Rat), UniProt P70597); assay: Test for confirmation of EP1 receptor antagonism: inhibition of the prostaglandin E2-induced increase in intracellular calcium concentration in rat EP1 receptor-expressing COS-1 cells; type: cell-based; conditions: Method A: Fluo-4 NW Calcium Assay Kit, FlexStation; prostaglandin E2 10 nM; rat EP1 receptor-expressing COS-1 cells
Description: (1) Preparation of Rat EP1 Expression Vector
Using Rat Kidney BD Marathon-Ready cDNA (Nippon Becton Dickinson Company, Ltd.) as a template, a forward primer shown in SEQ ID NO. 1, and a reverse primer shown in SEQ ID NO. 2, a first run of PCR was carried out using KOD-Plus-Ver 2.0 (Toyobo Co., Ltd.). Further, using this amplification product as a template, a forward primer shown in SEQ ID NO. 3, and a reverse primer shown in SEQ ID NO. 4, a second run of PCR was carried out in the same manner. The amplification product obtained by the second run of PCR was incorporated into a vector (pcDNA3.1 D/V5-His-TOPO (registered trademark), Invitrogen Japan K. K.). By a conventional method, the vector containing this amplification product was introduced to E. coli (One Shot TOP10 Competent Cells, Invitrogen Corporation) to transform. This transformed E. coli was cultured in an LB agar medium for one day. After the culture, colonies were selected and cultured in an LB liquid medium containing 50 μg/mL of ampicillin. After the culture, the vector was purified using a QIAprep Spin Miniprep Kit (Qiagen K. K.). The base sequence of the insertion site of this vector (SEQ ID NO. 5) was compared with the rat EP1 base sequence (Ptger1) registered as an accession number NM_013100 in well-known database (NCBI), and as a result, they all matched except for a single base. Further, the amino acid sequence translated by the base sequence completely matched the amino acid sequence of the rat EP1 receptor registered as an NCBI accession number NP_037232. Therefore, it was confirmed that the cloned gene sequence was a base sequence of the rat EP1 receptor and the obtained amino acid sequence was that of the rat EP1 receptor. The pcDNA3.1 D/V5-His-TOPO (registered trademark) to which the nucleic acid shown in SEQ ID NO. 5 had been inserted was taken as a rat EP1-expressing vector.
(2) Preparation of Rat EP1 Receptor-Expressing Cells
COS-1 cells (Dainippon Sumitomo Pharma Co., Ltd.) were cultured until it reached confluence in an incubator at 37° C. under a 5% CO2 gas condition, using a D-MEM liquid medium (high glucose and L-glutamine contained, Invitrogen Corporation) to which a penicillin-streptomycin solution (Invitrogen Corporation, final concentration: 100 U/mL as benzylpenicillin; 100 μg/mL as streptomycin) as an antibiotic, MEM nonessential amino acids (Invitrogen Corporation, final Concentration: 0.1 mM), and fetal calf serum (Sanko Junyaku Co., Ltd., final concentration: 10%) were added.
The cells that had reached confluence were stripped with 0.05% trypsin/0.53 mM EDTA 4Na (Invitrogen Japan K. K.) and resuspended in the liquid medium. The resuspended cells were diluted and cultured in the liquid medium at a spread ratio from 1:4 to 1:8.
The cells that had reached confluence were stripped with 0.05% trypsin/0.53 mM EDTA.4Na, and resuspended in a D-MEM liquid medium (high glucose and L-glutamine contained, Invitrogen Corporation) to which an MEM nonessential amino acid (final concentration: 0.1 mM) and fetal calf serum (final concentration: 10%) were added. In each well of a Poly D-lysine-coated 96-well microplate (BD BioCoat (registered trademark), Nippon Becton Dickinson Company, Ltd.), this resuspended cell suspension culture was prepared to be 5×10^4 cells/well in 100 μL of the liquid medium, and seeded thereon. After seeding, the cells were cultured in an incubator at 37° C. under a 5% CO2 gas condition. At a point when the cells for introduction of a rat EP1-expressing vector were adhered (about 2 hours after seeding), introduction of the rat EP1-expressing vector was carried out in the following order.
For introduction of the rat EP1-expressing vector, Lipofectamine 2000 (Invitrogen Japan K. K.) was used. […]

Female SD rats = assay: Inhibitory effect of compound on sulprostone-induced bladder contraction; type: in vivo, rat; conditions: sulprostone 0.3 mg/kg subcutaneously, urethane-anesthetized female SD rats; for Bladder Contraction Inhibition Rate (%) 15 Minutes: 15 minutes after test agent 1.0 mg/kg intravenously; for Bladder Contraction Inhibition Rate (%) 60 Minutes: 60 minutes after test agent 1.0 mg/kg intravenously
Description: Female SD rats were used. Under urethane anesthesia (1.25 g/kg, administered subcutaneously), a tracheal cannula (Size 8, HIBIKI) and a femoral vein cannula for administration (23 G needle-equipped PE50) were inserted thereinto. The bladder cannula (PE50) was inserted from the bladder apex. The bladder cannula was connected to a three-way stopcock, and then, one was connected to a pressure transducer and the other was connected to a syringe filled with saline. Saline was injected to the bladder at an injection rate of 3.6 mL/hour and the bladder contraction pressure was recorded at the time of injection with a recorder (RECTI-HORITZ-8K, NEC Corporation). After 10 minutes from stabilization of the bladder contraction pressure during urination, sulprostone was administered subcutaneously (0.3 mg/kg). Then, at the time point when the bladder contraction pressure became constant, a test agent was administered intravenously (1.0 mg/kg). An average bladder contraction pressure during the 10 minutes period before administration of sulprostone was taken as a baseline (0%). Further, an average bladder contraction pressure during the 10 minutes period before administration of the test agent was taken as a maximum bladder contraction pressure (100%). The average bladder contraction pressures were measured during 5 minutes before and after at 15 minutes and 60 minutes from administration of the test agent. The ratio of this measured value to the maximum bladder contraction pressure was calculated by the following equation and taken as an average bladder contraction rate after administration of the test agent: (Average Bladder Contraction Rate after Administration of Test Agent (%))=(Average Bladder Contraction Pressure after Administration of Test Agent)/(Maximum Bladder Contraction Pressure). In addition, the difference between the maximum bladder contraction rate (100%) and the average bladder contraction rate (%) after administration of the test agent was calculated by the following equation and taken as a bladder contraction inhibition rate of the test agent: (Bladder Contraction Inhibition Rate)=100%−(Average Bladder Contraction Rate after Administration of Test Agent (%)).

Sequence of rat EP1 receptor (P70597 whole entry): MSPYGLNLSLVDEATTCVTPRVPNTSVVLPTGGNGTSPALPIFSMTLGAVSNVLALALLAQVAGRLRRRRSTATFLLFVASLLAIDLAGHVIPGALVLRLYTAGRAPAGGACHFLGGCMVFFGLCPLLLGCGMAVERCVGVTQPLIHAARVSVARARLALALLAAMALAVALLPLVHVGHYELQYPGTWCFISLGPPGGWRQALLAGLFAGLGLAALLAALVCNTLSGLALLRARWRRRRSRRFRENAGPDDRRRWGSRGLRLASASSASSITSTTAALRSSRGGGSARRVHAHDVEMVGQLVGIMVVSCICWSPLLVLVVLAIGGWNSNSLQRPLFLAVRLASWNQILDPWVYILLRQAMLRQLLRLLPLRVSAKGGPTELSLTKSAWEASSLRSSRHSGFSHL

| IC50 (rat EP1 receptor) | SMILES | Bladder Contraction Inhibition Rate (%) 15 Minutes (Female SD rats) | Bladder Contraction Inhibition Rate (%) 60 Minutes (Female SD rats) |
| --- | --- | --- | --- |
| 13 nM | COc1ccc2c(c1)cc(-c1ccccc1)n2Cc1cccc(C(=O)O)n1 [Example 9-21, 6-(5-methoxy-2-phenylindol-1-ylmethyl)pyridine-2-carboxylic acid] | 94.5% | 82.8% |
|  | COc1cc2cc(-c3ccccc3)n(Cc3cccc(C(=O)O)n3)c2cc1F [Example 16-15] | 85.0% | 54.9% |
